We go through 4 compounds from PMC8878317, “Chemogenomics identifies acetyl-coenzyme A synthetase as a target for malaria treatment and prevention” (Cell Chemical Biology, 2022).

Assay type in all cases: cell-based
For assay [1], the system named is P. falciparum Dd2:A597V (CRISPR edited PfAcAS). The assay is described as follows: Blood-stage dose-response assay, CRISPR-edited Dd2:A597V line. To be noted: Plasmodium falciparum, mean ± SD, n bioreplicates. How it is done: (§1) For in vitro–selected lines, drug susceptibility was measured by SYBR Green I–based assay ([Johnson et al., 2007]; [Smilkstein et al., 2004]). Ring-stage parasites were cultured for 72 hr at 1% hematocrit and 1% starting parasitemia in 384-well black clear-bottom plates containing test compounds plated in triplicate in 12-point serial dilutions. Lysis buffer (0.16% w/v saponin, 1.6% Triton X-100, 5 mM EDTA, and 20 mM Tris-HCl, pH 7.4) with SYBR Green I fluorescent dye (Invitrogen) was added, and fluorescence readings were taken (excitation at 494 nm, emission at 530 nm). Alternatively, Dd2-B2 ring-stage cultures at 0.3% parasitemia and 1% hematocrit were exposed for 72 hr to a range of ten drug concentrations that were 2-fold serially diluted in duplicates along with drug-free controls. Parasite survival was assessed by flow cytometry on an Accuri C6 (BD Biosciences) using SYBR Green and MitoTracker Deep Red FM (Life Technologies) as nucleic acid stain and vital dyes respectively. EC50 values were calculated using a nonlinear regression curve fit in Prism Software version 8 (GraphPad).
(§2) Mutant PfAcAS-A597V and PfAcAS-T648M parasites were generated using CRISPR/Cas9. The guide RNAs for PfAcAS-A597V (5′-[…]-3′; 5′-[…]-3′) and for PfAcAS-T648M (5′-[…]-3′) were designed using Benchling (https://benchling.com/) to targeting sites in PfAcAS that were 6-14 bp upstream of the A597 codon and 6 bp downstream of the T648 codon respectively. Complementary oligos encoding the gRNA sequences (5′- tatt[…]-3’ / 5’-aaac[…]-3’; 5’-tatt[…]-3’ / 5’-aaac[…]-3’ and 5’- tattg[…]-3’ / 5’-aaac[…]c-3’ ) were phosphorylated using T4 polynucleotide kinase and annealed (95°C for 5 min, then step down of 5°C/min to 25°C) prior to ligation into the BbsI-digested pDC2-coCas9-U6.2-hDHFR plasmid ([Lim et al., 2016]). The donor template for PfAcAS-A597V was synthesized (ThermoFisher) as a 700 bp Genestring fragment spanning position 1468 to 2168 of the PfAcAS gene, and the donor for PfAcAS-T648M synthesized as a 829 bp fragment spanning position 1468 to 2297 and inserted into the AatII/EcoRI sites of the pDC2-coCas9-gRNA-hDHFR plasmid by Gibson assembly. Ring-stage parasites (Dd2) at 5% parasitemia were transfected by electroporation (BioRad Gene Pulser II at 0.310 kV and 950 μF) with 50 μg of each plasmid (plasmid 1: pDC2-coCas9-AcAS-A597V-gRNA1-hDHFR, plasmid 2: pDC2-coCas9-gRNA2-hDHFR, or plasmid 3: pDC2-coCas9-AcAS-T648M-gRNA1-hDHFR), and parasites selected for 10 days with 2.5 nM WR99210 (Jacobus Pharmaceuticals), followed by removal of drug pressure. After confirmation of editing in the bulk culture, clones were isolated by serial limiting dilution and confirmed by Sanger sequencing after PCR amplification from genomic DNA using forward primer 5′-[…]-3′ and reverse primer 5′-[…]-3′ (for A597V) and 5′-[…]-3′ (for T648M).

Assay [2] relates to P. falciparum Dd2:T648M (CRISPR edited PfAcAS). Put plainly: Blood-stage dose-response assay, CRISPR-edited Dd2:T648M line. As to conditions: Plasmodium falciparum, mean ± SD, n bioreplicates. The method, then: as §1, §2
A further assay has as its system P. falciparum Dd2-B2. The assay is described as follows: Blood-stage dose-response assay (72 hr), Dd2 / Dd2-B2 parent. To be noted: Plasmodium falciparum, DD2, read-out: Dd2-B2 parent EC50 ± SD (nM). How it is done: (§3) The 3D7-A10 clone has been used in previous in vitro drug selection and sequencing efforts ([Cowell et al., 2018]). Dd2 parasites were obtained from T. Wellems (NIAID, NIH). Dd2-B2 is a genetically homogeneous line that was cloned from Dd2 by limiting dilution in the Fidock lab. Parasite strains were cultured in 3-5% human O+ hematocrit in RPMI 1640 (Life Technologies) supplemented with 28 mM NaHCO3, 25 mM HEPES, and hypoxanthine ([…]). Depending on the parasite line, the media either contained gentamycin (25 μg/mL), or no antibiotic and was additionally supplemented with 0.5% AlbuMAX II (Life Technologies) and/or O+ human serum (heat inactivated and pooled). Blood and serum products were obtained from Interstate Blood Bank. Cultures were maintained at 37°C in 1.1% O2, 4% CO2, and 95% N2. Parasite populations were synchronized by 5% sorbitol treatment ([Lambros and Vanderberg, 1979]).
as §1

A further assay relates to P. falciparum 3D7-A10. The assay is described as follows: Blood-stage dose-response assay (SYBR Green I, 72 hr), 3D7 / 3D7-A10 parent. As to conditions: Plasmodium falciparum, mean ± SD, n bioreplicates, read-out: 3D7-A10 parent EC50 ± SD. The method, then:
as §3, §1

Assay [3] relates to histone acetylation in P. falciparum 3D7-A10. Put plainly: Histone acetylation Western blot, wild-type 3D7-A10. To be noted: trophozoites, 3 h exposure. On the technique in general: Immunoblotting shows a protein as a band on a membrane.
Protocol: Synchronous trophozoite-stage (24-32hr post-invasion) cultures at 3–5% parasitemia and 2% hematocrit in complete medium were exposed to test compounds for 3 hr at 37°C. […] DMSO was tested at 0.1% as the vehicle-only control. Following drug exposure, parasites were isolated via saponin lysis ice-cold 0.1% saponin in phosphate-buffered saline (PBS). Isolated parasites were washed 3x in ice-cold PBS containing protease inhibitor cocktail (cOmplete mini, Roche) and lysed in 1x Laemmli Sample Buffer (Biorad) with 5% beta-mercaptoethanol (Sigma-Aldrich). Samples were heated at 99°C for 10 min before centrifugation. Equal quantities of solute were separated on Protean TGX Precast Gels (4–20% gradient) in Tris-SDS-glycine buffer, transferred to nitrocellulose membrane by iblot (Invitrogen), and blocked for 1h in tris-buffered saline (TBS) with 5% skim milk powder. Blocked membranes were probed with antibodies recognising tetra-acetylated H4 (H4ac4, Sigma-Aldrich 06–866), H4K8ac (CST #2594), H3K9ac (CST #9649) or H3 (CST #4499), at 1:1000 dilution, and PfBiP ([Shonhai et al., 2007]) (at 1:5000 dilution) in 3% milk powder TBS with 0.1% Tween 20 at 4°C overnight and with 800CW goat α-rabbit IgG (Licor) at 1:10,000 dilution. Membranes were visualised using a Licor Odyssey CLX imaging system and quantified using ImageJ.

By EC50 is commonly meant the concentration needed to bring the measured effect to its halfway point. Consider `C[C@H]1[C@@H](O)O[C@@H]2O[C@@]3(C)CC[C@H]4[C@H](C)CC[C@@H]1[C@@]24OO3` [Dihydroartemisinin], for which the EC50 in assay [1] was found to be 5.6 ± 3.5 nM; in assay [2] it was 3.7 ± 3 nM; in the assay on P. falciparum Dd2-B2, 4.6 ± 3 nM; in the assay on P. falciparum 3D7-A10 it was 2.6 ± 1.6 nM.

On to `CCN(CC)Cc1cc(Nc2ccnc3cc(Cl)ccc23)ccc1O` [Amodiaquine], for which the EC50 in assay [1] was 21 ± 2.5 nM; in assay [2] it was 20 ± 8.6 nM; with P. falciparum Dd2-B2, 19 ± 6 nM; with P. falciparum 3D7-A10, 7.4 ± 1.8 nM.

With `OC(c1cc(C(F)(F)F)nc2c(C(F)(F)F)cccc12)C1CCCCN1` (stereo not shown) [Mefloquine], the EC50 in assay [1] is 31 ± 17 nM; in assay [2], 20 ± 11 nM; in the assay on P. falciparum Dd2-B2, 15 ± 5.7 nM; in the assay on P. falciparum 3D7-A10, 18 ± 4.6 nM.

Take `CC(/C=C/C(=O)NO)=C\[C@@H](C)C(=O)c1ccc(N(C)C)cc1` [trichostatin A]: the “acetylation of H4K8ac, H3K9ac and tetra-acetylated H4 (H4Ac4) histone markers relative to DMSO” value in assay [3] is recorded as “significant increase”.
